Test results as given in US20140328809A1, “METHODS OF INDUCING CHONDROGENESIS IN MESENCHYMAL STEM CELLS USING SYNTHETIC TRITERPENOIDS” (TRUSTEES OF DARTMOUTH COLLEGE, priority 2011, published 2014).

What was measured:
[1] = system: TIMP-2; experiment: Quantitative RT-PCR analysis on calvaria: TIMP-2; type: cell-based, mouse; conditions: 7 days of culture, normalized to control = 1.00
Method: (§1) All chemicals were from Sigma-Aldrich. Primers for RT-PCR were from Applied Biosystems. The isolation of calvaria was essentially performed as described previously (Garrett, 2003; Garret et al., 2003). The calvaria were cultured in Biggers, Gwatkins, Judah medium supplemented with 1 mg/mL of bovine serum albumin (Cohn fraction V), 100 U/mL each of penicillin/streptomycin, and 0.292 mg/mL of glutaimine. On Day 1, the calvaria were treated with CDDO-Im or CDDO-EA. On Day 4, the medium was replaced with fresh medium, again containing either CDDO-Im or CDDO-EA. On Day 7, the calvaria were collected and either stored at −80° C. for further RNA analysis or fixed in 10% buffered formalin for 24 h and transferred to 80% ethanol for histological analysis.
(§2) After 7 days of culture, RNA was isolated from the calvaria and quantitative RT-PCR analysis was performed for more than 15 different markers including: SOX9 (a transcription factor specific for cartilage), collagen type II (alpha 1), all three isoforms of TGF-β, BMPs 2 and 4, BMP receptor II, Smads 3, 4, 6, and 7, tissue inhibitors of metalloproteinases (TIMP-1 and TIMP-2), and matrix metalloproteinase-9 (MMP-9). […] Both triterpenoids are strong inhibitors of the expression of MMP-9; CDDO-EA (200 nM), caused almost 80% inhibition of the expression of this metalloproteinase, which is known to be involved in the degradation of cartilage (Shinoda et al., 2008).

[2] = system: Smad7; experiment: Quantitative RT-PCR analysis on calvaria: Smad7; type: cell-based, mouse; conditions: 7 days of culture, normalized to control = 1.00
Method: as §1, §2

[3] = system: BMP-2; experiment: Quantitative RT-PCR analysis on calvaria: BMP-2; type: cell-based, mouse; conditions: 7 days of culture, normalized to control = 1.00
Method: as §1, §2

[4] = system: Col II alpha1; experiment: Quantitative RT-PCR analysis on calvaria: Col II alpha1; type: cell-based, mouse; conditions: 7 days of culture, normalized to control = 1.00
Method: as §1, §2

[5] = system: BMPRII; experiment: Quantitative RT-PCR analysis on calvaria: BMPRII; type: cell-based, mouse; conditions: 7 days of culture, normalized to control = 1.00
Method: as §1, §2

[6] = system: MMP-9; experiment: Quantitative RT-PCR analysis on calvaria: MMP-9; type: cell-based, mouse; conditions: 7 days of culture, normalized to control = 1.00
Method: as §1, §2

[7] = system: SOX9; experiment: Western blot of chondrocyte marker SOX9 in bone marrow-derived MSCs; type: cell-based, human; conditions: 100 nM for 7 days; MSCs in chondrogenic culture medium; not detectable in control
Method: (§3) Human bone marrow-derived stromal cells (ScienCell Research Laboratories), which contain a population of responsive mesenchymal stem cells, were grown in mesenchymal stem cell medium (ScienCell Research Laboratories). MSCs were serum-starved 24 hours prior to all experimental conditions. The synthesis of the synthetic triterpenoids, CDDO-Im and CDDO-EA, have been previously described (Sporn et al., 2011).
(§4) For directed chondrocytic differentiation, MSCs were grown in StemPro chondrogenic culture medium (Invitrogen) prepared by the technique of Kassem (2004), which is incorporated herein by reference. See also Medici et al. (2010), which is also incorporated herein by reference. CDDO-Im and CDDO-EA were added to the cultures at a concentration of 100 nM for 7 days. Western blot analysis was performed using the following antibodies at concentrations (and using protocols) recommended by the respective manufacturers: SOX9, COL2A1 (Santa Cruz Biotechnology), Aggrecan (Abcam), β-actin (Sigma-Aldrich). β-actin was used as a loading control. HRP-conjugated IgG TrueBlot reagents (eBioscience) were used at a dilution of 1:1000.

[8] = system: Aggrecan; experiment: Western blot of chondrocyte marker Aggrecan in bone marrow-derived MSCs; type: cell-based, human; conditions: 100 nM for 7 days; MSCs in chondrogenic culture medium; not detectable in control
Method: as §3, §4

[9] = system: collagen type II (COL2A1); experiment: Immunohistochemical analysis of collagen type II in calvaria; type: cell-based, mouse; conditions: 200 nM, FIG. 1b
Method: as §1
(§5) After fixation for 24 h, the calvaria were decalcified in EDTA, embedded in paraffin, and cut into 4 μm sections. The sections were stained either with modified hematoxylin and eosin or with toluidine blue (1% in 70% ethanol for 20 min, followed by destaining in 70%, 90%, and 100% ethanol for 15 seconds), placed in xylene twice, and then mounted (Garret, 2003). Procedures for immunofluroescence were performed essentially as previously described (Medici et al., 2010). […]

[10] = system: TGF-β3; experiment: Quantitative RT-PCR analysis on calvaria: TGF-β3; type: cell-based, mouse; conditions: 7 days of culture, normalized to control = 1.00
Method: as §1, §2

[11] = system: TIMP-1; experiment: Quantitative RT-PCR analysis on calvaria: TIMP-1; type: cell-based, mouse; conditions: 7 days of culture, normalized to control = 1.00
Method: as §1, §2

[12] = system: Smad4; experiment: Quantitative RT-PCR analysis on calvaria: Smad4; type: cell-based, mouse; conditions: 7 days of culture, normalized to control = 1.00
Method: as §1, §2

[13] = system: SOX-9; experiment: Quantitative RT-PCR analysis on calvaria: SOX-9; type: cell-based, mouse; conditions: 7 days of culture, normalized to control = 1.00
Method: as §1, §2

[14] = system: newborn mouse calvaria; experiment: Histological analysis (toluidine blue) of chondrogenesis in newborn mouse calvarial organ cultures; type: cell-based; conditions: 200 nM, 7 days, FIG. 1a, at least 3 sets of replicate experiments
Method: as §1, §5

[15] = system: Smad3; experiment: Quantitative RT-PCR analysis on calvaria: Smad3; type: cell-based, mouse; conditions: 7 days of culture, normalized to control = 1.00
Method: as §1, §2

[16] = system: Smad6; experiment: Quantitative RT-PCR analysis on calvaria: Smad6; type: cell-based, mouse; conditions: 7 days of culture, normalized to control = 1.00
Method: as §1, §2

[17] = system: TGF-β1; experiment: Quantitative RT-PCR analysis on calvaria: TGF-β1; type: cell-based, mouse; conditions: 7 days of culture, normalized to control = 1.00
Method: as §1, §2

[18] = system: TGF-β2; experiment: Quantitative RT-PCR analysis on calvaria: TGF-β2; type: cell-based, mouse; conditions: 7 days of culture, normalized to control = 1.00
Method: as §1, §2

[19] = system: BMP-4; experiment: Quantitative RT-PCR analysis on calvaria: BMP-4; type: cell-based, mouse; conditions: 7 days of culture, normalized to control = 1.00
Method: as §1, §2

[20] = system: COL2A1; experiment: Western blot of chondrocyte marker COL2A1 in bone marrow-derived MSCs; type: cell-based, human; conditions: 100 nM for 7 days; MSCs in chondrogenic culture medium; not detectable in control
Method: as §3, §4

CC1(C)CC[C@]2(C(=O)n3ccnc3)CC[C@]3(C)[C@H](C(=O)C=C4[C@@]5(C)C=C(C#N)C(=O)C(C)(C)[C@@H]5CC[C@]43C)[C@@H]2C1 [CDDO-Im, CDDO-Imidazolide]
TIMP-2 expression (quantitative RT-PCR) ([1]; 50 nM): 1.24 ± 0.10
TIMP-2 expression (quantitative RT-PCR) ([1]; 200 nM): 1.67 ± 0.19
TIMP-2 expression (quantitative RT-PCR) ([1]; 500 nM): 2.62 ± 0.29
Smad7 expression (quantitative RT-PCR) ([2]; 50 nM): 1.05 ± 0.07
Smad7 expression (quantitative RT-PCR) ([2]; 200 nM): 1.32 ± 0.14
Smad7 expression (quantitative RT-PCR) ([2]; 500 nM): 1.78 ± 0.18
BMP-2 expression (quantitative RT-PCR) ([3]; 50 nM): 1.17 ± 0.07
BMP-2 expression (quantitative RT-PCR) ([3]; 200 nM): 1.60 ± 0.19
BMP-2 expression (quantitative RT-PCR) ([3]; 500 nM): 3.14 ± 0.53
Col II alpha1 expression (quantitative RT-PCR) ([4]; 50 nM): 1.45 ± 0.09
Col II alpha1 expression (quantitative RT-PCR) ([4]; 200 nM): 1.32 ± 0.23
Col II alpha1 expression (quantitative RT-PCR) ([4]; 500 nM): 1.72 ± 0.39
BMPRII expression (quantitative RT-PCR) ([5]; 50 nM): 1.09 ± 0.06
BMPRII expression (quantitative RT-PCR) ([5]; 200 nM): 1.22 ± 0.11
BMPRII expression (quantitative RT-PCR) ([5]; 500 nM): 1.46 ± 0.14
MMP-9 expression (quantitative RT-PCR) ([6]; 50 nM): 0.73 ± 0.16
MMP-9 expression (quantitative RT-PCR) ([6]; 200 nM): 0.44 ± 0.12
MMP-9 expression (quantitative RT-PCR) ([6]; 500 nM): 0.26 ± 0.03
induction of SOX9 (Western blot) [7]: clear induction
induction of Aggrecan (Western blot) [8]: clear induction
formation of collagen type II (COL2A1), red fluorescence [9]: induce the formation of collagen type II
TGF-β3 expression (quantitative RT-PCR) ([10]; 50 nM): 1.30 ± 0.07
TGF-β3 expression (quantitative RT-PCR) ([10]; 200 nM): 1.52 ± 0.16
TGF-β3 expression (quantitative RT-PCR) ([10]; 500 nM): 1.66 ± 0.13
TIMP-1 expression (quantitative RT-PCR) ([11]; 50 nM): 1.43 ± 0.19
TIMP-1 expression (quantitative RT-PCR) ([11]; 200 nM): 1.83 ± 0.18
TIMP-1 expression (quantitative RT-PCR) ([11]; 500 nM): 3.00 ± 0.65
Smad4 expression (quantitative RT-PCR) ([12]; 50 nM): 0.96 ± 0.06
Smad4 expression (quantitative RT-PCR) ([12]; 200 nM): 1.03 ± 0.09
Smad4 expression (quantitative RT-PCR) ([12]; 500 nM): 1.26 ± 0.09
SOX-9 expression (quantitative RT-PCR) ([13]; 50 nM): 1.26 ± 0.08
SOX-9 expression (quantitative RT-PCR) ([13]; 200 nM): 1.33 ± 0.05
SOX-9 expression (quantitative RT-PCR) ([13]; 500 nM): 1.83 ± 0.13
induction of chondrogenesis (metachromatic toluidine blue purple staining, proteoglycans) [14]: marked ability to induce chondrogenesis
Smad3 expression (quantitative RT-PCR) ([15]; 50 nM): 0.97 ± 0.07
Smad3 expression (quantitative RT-PCR) ([15]; 200 nM): 0.90 ± 0.05
Smad3 expression (quantitative RT-PCR) ([15]; 500 nM): 1.35 ± 0.19
Smad6 expression (quantitative RT-PCR) ([16]; 50 nM): 0.95 ± 0.05
Smad6 expression (quantitative RT-PCR) ([16]; 200 nM): 1.23 ± 0.14
Smad6 expression (quantitative RT-PCR) ([16]; 500 nM): 1.77 ± 0.19
TGF-β1 expression (quantitative RT-PCR) ([17]; 50 nM): 0.96 ± 0.07
TGF-β1 expression (quantitative RT-PCR) ([17]; 200 nM): 1.08 ± 0.12
TGF-β1 expression (quantitative RT-PCR) ([17]; 500 nM): 1.46 ± 0.12
TGF-β2 expression (quantitative RT-PCR) ([18]; 50 nM): 1.17 ± 0.05
TGF-β2 expression (quantitative RT-PCR) ([18]; 200 nM): 1.15 ± 0.09
TGF-β2 expression (quantitative RT-PCR) ([18]; 500 nM): 1.17 ± 0.10
BMP-4 expression (quantitative RT-PCR) ([19]; 50 nM): 0.97 ± 0.05
BMP-4 expression (quantitative RT-PCR) ([19]; 200 nM): 0.98 ± 0.06
BMP-4 expression (quantitative RT-PCR) ([19]; 500 nM): 1.35 ± 0.22
induction of COL2A1 (Western blot) [20]: clear induction
